These results are taken from ChEMBL document CHEMBL1147505, “Efficient and chemoselective N-acylation of 10-amino-7-ethyl camptothecin with poly(ethylene glycol)” (2004).

Molecules are shown by their SMILES. Residues, ends and D or L forms follow the SMILES beside them. *: point of attachment. X2 = CCc1c2c(nc3ccc(N*)cc13)-c1cc3c(c(=O)n1C2)COC(=O)[C@]3(O)CC; X1 = COCCOC(=O)*

Assay [1] is filed under the species Mus musculus. Put plainly: Survival rate was determined as the ratio of mean survival days of treated group of mice to that of control group. The format is functional.
Assay [2] concerns Mus musculus. Put plainly: Survival time of CDF1 mice inoculated with leukemia P388 cells determined after 40 days of intravenous administration of compound at 20 mg/kg on days 1, 5 and 9. The format is functional.

For the compound `CCc1c2c(nc3ccc(NC(=O)CNC(=O)[C@H](Cc4ccccc4)NC(=O)[C@H](CC(C)C)NC(=O)CNC(=O)OCCOC)cc13)-c1cc3c(c(=O)n1C2)COC(=O)[C@]3(O)CC` (X1-GLFG-X2), the T/C in assay [1] is given as 170%. Further, in assay [2], the Survival time was 13 days.

`COc1cccc2c1C(=O)c1c(O)c3c(c(O)c1C2=O)C[C@@](O)(C(=O)CO)C[C@@H]3O[C@H]1C[C@H](N)[C@H](O)[C@H](C)O1` [DOXORUBICIN]: in assay [1], the T/C is reported as >183%. Further, the Survival time in assay [2] was >14 days.

As to `CCc1c2c(nc3ccc(OC(=O)N4CCC(N5CCCCC5)CC4)cc13)-c1cc3c(c(=O)n1C2)COC(=O)[C@]3(O)CC` [IRINOTECAN], in assay [1], the T/C turned out to be 172%.
